Assay results taken from patent publication US6689392B2, “Methods and compositions for controlling plant pathogen” (Agricare Ltd., priority 2001, dated 2004).
Like-named read-outs stand apart in the source and are kept apart here.

How the values were obtained:
P. infestans [1] = assay type: cell-based, Phytophthora infestans; parameters: unit not given beside the values
P. infestans [2] = assay type: in vivo, Phytophthora infestans; parameters: ED90: unit not given beside the values
Pythium aphanidermatum = Pythium aphanidermatum mycelial growth in vitro; assay type: cell-based; conditions: recommended dosage of 0.07% of active ingredient; 24 hr, 25° C.; FIG. 6
P. aphanidermatum = experiment: Pythium damping-off disease in cucumber seedlings; assay type: in vivo, Pythium aphanidermatum; conditions: drench at 0.07% of active ingredient, after 10 days, FIG. 7
P. infestans [3] = assay type: in vivo, Phytophthora infestans; parameters: unit not given beside the values; conditions: TOMATO; Table 2
P. infestans [4] = assay type: in vivo, Phytophthora infestans; parameters: unit not given beside the values; conditions: POTATO; Table 2

## OP(O)O [H3PO3, Phosphorous Acid]
P. infestans [1]
  ED90: 45
P. infestans [2]; Tomato, 0.01% active ingredient, Table 4
  Inhibition (% of control): 13 % of control
P. infestans [2]; Tomato, 0.02% active ingredient, Table 4
  Inhibition (% of control): 13 % of control
P. infestans [2]; Tomato, 0.05% active ingredient, Table 4
  Inhibition (% of control): 19 % of control
P. infestans [2]; Tomato, 0.1% active ingredient, Table 4
  Inhibition (% of control): 31 % of control
P. infestans [2]; in vivo
  ED90: 2.52

## CCO[PH](=O)O [Fosetyl-Al]
Pythium aphanidermatum
  inhibition of radial growth in vitro: 50%
P. aphanidermatum
  plants survived in Pythium-inoculated flats: 70-80%

## Potassium Phosphite [K3PO3]
P. infestans [1]; tomato leaf discs, Table 1
  ED90: 130
P. infestans [3]
  ED90: 1.10
P. infestans [4]
  ED90: 0.52
P. infestans [2]; Tomato, 0.12% active ingredient, Table 3
  Inhibition (% of control): 50 % of control
P. infestans [2]; Tomato, 0.25% active ingredient, Table 3
  Inhibition (% of control): 63 % of control
P. infestans [2]; Tomato, 0.5% active ingredient, Table 3
  Inhibition (% of control): 86 % of control
P. infestans [2]; Tomato, 1.0% active ingredient, Table 3
  Inhibition (% of control): 98 % of control
P. infestans [2]; Tomato, Table 3
  ED90: 0.55
